Test results reported in patent publication US7037644B1, “Means and methods for monitoring non-nucleoside reverse transcriptase inhibitor antiretroviral therapy and guiding therapeutic decisions in the treatment of HIV/AIDS” (ViroLogic, Inc., priority 1998, dated 2006).

Test system: RTV-268, patient 97-268 (RT M41L, D67N, M184V, L210W, T215Y, K219Q, P236L)
Experiment: Phenotypic susceptibility assay (patient RTV)
Format: cell-based, HIV-1
Details: patient virus RTV-268 vs reference virus
Text: The resistance test vectors containing a functional luciferase gene cassette were constructed and host cells were transfected with the resistance test vector DNA. The resistant test vectors contained patient-derived reverse transcriptase and protease sequences that were either susceptible or resistant to the antiretroviral agents, such as nucleoside reverse transcriptase inhibitors, non-nucleoside reverse transcriptase inhibitors and protease inhibitors. The resistance test vector viral particles produced by transfecting the resistance test vector DNA into host cells, either in the presence or absence of protease inhibitors, were used to infect target host cells grown either in the absence of NRTI or NNRTI or in the presence of increasing concentrations of the drug. The amount of luciferase activity produced in infected target host cells in the presence of drug was compared to the amount of luciferase produced in infected target host cells in the absence of drug. Drug resistance was measured as the amount of drug required to inhibit by 50% the luciferase activity detected in the absence of drug (inhibitory concentration 50%, IC50). The IC50 values were determined by plotting percent drug inhibition vs. log10 drug concentration.
Host cells were seeded in 10-cm-diameter dishes and were transfected several days after plating with resistance test vector plasmid DNA and the envelope expression vector. Transfections were performed using a calcium-phosphate precipitation procedure. The cell culture media containing the DNA precipitate was replaced with fresh medium, from one to 24 hours, after transfection. Cell culture media containing resistance test vector viral particles was harvested one to four days after transfection and was passed through a […] filter before being stored at […]. HIV capsid protein (p24) levels in the harvested cell culture media were determined by an EIA method as described by the manufacturer (SIAC; Frederick, Md.). Before infection, target cells (293 and 293/T) were plated in cell culture media. Control infections were performed using cell culture media from mock transfections (no DNA) or transfections containing the resistance test vector plasmid DNA without the envelope expression plasmid. One to three or more days after infection the media was removed and cell lysis buffer (Promega) was added to each well. Cell lysates were assayed for luciferase activity (FIG. 3). The inhibitory effect of the drug was determined using the following equation: % luciferase inhibition=1−(RLUluc [drug]÷RLUluc)×100 where RLUluc [drug] is the relative light unit of luciferase activity in infected cells in the presence of drug and RLUluc is the Relative Light Unit of luciferase activity in infected cells in the absence of drug. IC50 values were obtained from the sigmoidal curves that were generated from the data by plotting the percent inhibition of luciferase activity vs. the log10 drug concentration. The drug inhibition curves are shown in (FIG. 3).
A resistance test vector was constructed as described in Example 1 from a patient sample designated 97-268. This patient had been treated with AZT and 3TC (NRTIs), indinavir and saquinavir (PRIs) and delavirdine (an NNRTI) for periods varying from 1 month to 2 years. Isolation of viral RNA and RT/PCR was used to generate a patient derived segment that comprised viral sequences coding for all of PR and amino acids 1-313 of RT. The patient derived segment was inserted into a indicator gene viral vector to generate a resistance test vector designated RTV-268. RTV-268 was then tested using the phenotypic susceptibility assay to determine accurately and quantitatively the level of susceptibility to a panel of anti-retroviral drugs. This panel of anti-retroviral drugs comprised members of the classes known as NRTIs (AZT, 3TC, d4T, ddI and ddC), NNRTIs (delavirdine and nevirapine), and PRIs (indinavir, nelfinavir, ritonavir, and saquinavir). An IC50 was determined for each drug tested. […]

Row | SMILES | change in susceptibility
1 | Nc1ccn([C@@H]2CS[C@H](CO)O2)c(=O)n1 [3TC] | significant resistance
2 | Cc1cn([C@H]2C[C@H](N=[N+]=[N-])[C@@H](CO)O2)c(=O)[nH]c1=O [AZT] | significant resistance
3 | Cc1cn([C@H]2C=C[C@@H](CO)O2)c(=O)[nH]c1=O [d4T] | slight shifts in susceptibility
4 | Nc1ccn([C@H]2CC[C@@H](CO)O2)c(=O)n1 [ddC] | slight shifts in susceptibility
5 | O=c1[nH]cnc2c1ncn2[C@H]1CC[C@@H](CO)O1 [ddI] | slight shifts in susceptibility

Test system: codon 181 mutant HIV-1
Experiment: not given
Details: cited from earlier work

Row | SMILES | change in IC between wild-type and codon 181 mutant HIV-1 [fold]
6 | CCc1cc(CCc2nc3c(Cl)ccc(Cl)c3o2)c(=S)[nH]c1C [L-702,019] | 3
